Structures are written as SMILES.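 A five-concentration, 48-hour dose response in 96-well plates underlies each endpoint, interpolated linearly between surrounding concentrations. At the TGI there is no net growth.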 Where only a bound is given, the exact number is not on record here.

Some test systems named below: EKVX NSCLC; HCC-2998 colon; HCT-15 colon; HS 578T breast; HT29 colon; KM12 colon; MALME-3M melanoma; MCF7 breast; NCI-H23 lung; NCI-H460 lung; OVCAR-3 ovarian; PC-3 prostate; RXF 393 renal; SF-268 CNS; SF-539 CNS; SNB-75 CNS; SR leukemia; SW-620 colon; UO-31 renal; DU-145 prostate.
What all share (assay): growth of human tumour cells (NCI), 48 h

On to `Oc1[nH]c(=S)[nH]c1/C=C1/C(c2ccccc2)=Nc2ccccc21`, for which the TGI in the assay on EKVX NSCLC came out at 36.4 µM; in the assay on HCC-2998 colon, 36.9 µM; in the assay with HCT-15 colon, 31.2 µM; in the assay with HS 578T breast, 42.4 µM; in the assay on HT29 colon, 30.5 µM; with KM12 colon it was 29.3 µM. Besides, the TGI in the assay on MALME-3M melanoma was determined as 26.4 µM; with MCF7 breast, 28.5 µM; in the assay on NCI-H23 lung, 29 µM; with NCI-H460 lung, 27.6 µM; with OVCAR-3 ovarian, 30 µM; in the assay with PC-3 prostate it was 25.6 µM. Besides, the TGI with RXF 393 renal is 28.7 µM; in the assay with SF-268 CNS, greater than 100 µM; with SF-539 CNS, 31.2 µM; with SNB-75 CNS it was 28.8 µM; in the assay with SR leukemia, 27.9 µM; in the assay on SW-620 colon it was 31.9 µM. The compound further had a TGI in the assay with UO-31 renal of 21.4 µM.

Turning to `COc1cc(C2OC(N)=C(C#N)C3=C2C(C)CCC3)cc(OC)c1OC` (centres undefined), the TGI in the assay with DU-145 prostate, with EKVX NSCLC, in the assay on HCT-15 colon, in the assay on HS 578T breast, in the assay with HT29 colon and in the assay on KM12 colon was greater than 100 µM throughout. The TGI with MALME-3M melanoma, with MCF7 breast, in the assay with NCI-H23 lung, in the assay on OVCAR-3 ovarian, in the assay with PC-3 prostate and in the assay with RXF 393 renal was greater than 100 µM in each case. The TGI in the assay with SF-268 CNS was greater than 100 µM; in the assay on SF-539 CNS, greater than 100 µM; with SNB-75 CNS, 94.8 µM; with SR leukemia, greater than 100 µM; in the assay with SW-620 colon, greater than 100 µM; with UO-31 renal it was greater than 100 µM.

As for `CC(C)(C)C1CCC2c3c([nH]c4ccccc34)C3C(=O)N(c4ccccc4Cl)C(=O)C3C2C1` (centres undefined), the TGI is 42.7 µM in the assay on DU-145 prostate; 31.5 µM in the assay on EKVX NSCLC; 11.2 µM in the assay with HCC-2998 colon; 31.6 µM in the assay on HCT-15 colon; 35.3 µM with HS 578T breast; 28.4 µM in the assay on HT29 colon. For the same compound, the TGI in the assay on MALME-3M melanoma was 37.1 µM; in the assay with NCI-H23 lung, 62.7 µM; in the assay on NCI-H460 lung, 15.8 µM; in the assay with OVCAR-3 ovarian, 47.3 µM; with PC-3 prostate it was 28 µM; with RXF 393 renal, 33.3 µM. Also, the TGI was 35.5 µM in the assay on SF-268 CNS, greater than 100 µM in the assay with SR leukemia, 22.7 µM with SW-620 colon and 78.1 µM with UO-31 renal.

Take `CNC1c2ccccc2C(=O)c2cc3c(cc21)OCCOCCOCCOCCO3` (centres undefined): the TGI in the assay with EKVX NSCLC, with HCC-2998 colon, with HCT-15 colon, in the assay with HS 578T breast, with HT29 colon and in the assay with KM12 colon was greater than 100 µM each time. Also, the TGI with MCF7 breast, in the assay with NCI-H460 lung, in the assay on PC-3 prostate, in the assay on SF-268 CNS, in the assay on SF-539 CNS and with SNB-75 CNS was greater than 100 µM each time. Further, the values for the TGI in the assay on SR leukemia, with SW-620 colon and with UO-31 renal were 96.2 µM, greater than 100 µM and greater than 100 µM, respectively.

In the case of `CCOC(=O)Cc1nnc2n(-c3ccccc3)c(=O)c3ccccc3n12`, the TGI in the assay on DU-145 prostate, with EKVX NSCLC, with HCC-2998 colon, in the assay with HCT-15 colon, with HT29 colon and in the assay on KM12 colon was greater than 100 µM in each case. Besides, the TGI in the assay on MALME-3M melanoma, with MCF7 breast, in the assay on NCI-H23 lung, with NCI-H460 lung, with OVCAR-3 ovarian and in the assay on PC-3 prostate was greater than 100 µM in each case. Moreover, the TGI in the assay with RXF 393 renal, in the assay with SF-268 CNS, in the assay with SF-539 CNS, with SNB-75 CNS, in the assay on SR leukemia and in the assay on SW-620 colon was greater than 100 µM in each case. Also, the TGI with UO-31 renal is greater than 100 µM.

`Cc1cc(=O)oc2c(CNC(CO)C(=O)O)c(O)ccc12` (centres undefined): the TGI with DU-145 prostate, in the assay on EKVX NSCLC, in the assay with HCT-15 colon, with HS 578T breast, in the assay on HT29 colon and in the assay on KM12 colon was greater than 100 µM throughout. For the same compound, the TGI with MALME-3M melanoma, in the assay with MCF7 breast, with NCI-H23 lung, in the assay on NCI-H460 lung, in the assay on OVCAR-3 ovarian and in the assay with PC-3 prostate was greater than 100 µM throughout. Also, the TGI in the assay with RXF 393 renal, in the assay with SF-268 CNS, in the assay with SF-539 CNS, in the assay with SNB-75 CNS, with SR leukemia and in the assay with SW-620 colon was greater than 100 µM in each case. Also, the TGI with UO-31 renal is greater than 100 µM.

As for `O=[N+]([O-])c1cccc(-c2ncc3c(n2)-c2ccccc2C3)c1`, the TGI in the assay on DU-145 prostate, in the assay on EKVX NSCLC, in the assay on HCT-15 colon, with HS 578T breast, in the assay with HT29 colon and in the assay with KM12 colon was greater than 100 µM throughout. Besides, the TGI in the assay with MALME-3M melanoma, in the assay on MCF7 breast, in the assay with NCI-H23 lung, in the assay on NCI-H460 lung, with PC-3 prostate and in the assay on RXF 393 renal was greater than 100 µM each time. Besides, the TGI in the assay on SF-268 CNS, with SF-539 CNS, in the assay with SNB-75 CNS, in the assay with SR leukemia, in the assay on SW-620 colon and with UO-31 renal was greater than 100 µM in each case.

Source of the values: PubChem BioAssay (NCI).
